{
  "source": "patent US20210137958A1",
  "about": "“PHARMACEUTICAL COMPOSITIONS OF DECITABINE” (SHILPA MEDICARE LIMITED, priority 2018, published 2021)",
  "key": {"[1]": {"type": "physicochemical", "description": "a) Impurity 1 is formed in acidic and basic conditions. Impurity 1 is chemically 5-Azacytosine or 4-amino-1, 3, 5-triazin-2(1H)-one and represented by following structure.\nb) Impurity 2 is an oxidation impurity formed by peroxide stress and is chemically (4-amino-1-(tetrahydro-4-hydroxy-5-(Hydroxymethyl)furan-2-yl)-1,3,5-triazin-2(1H)-one or alpha isomer and represented by following structure\nc) Impurity 3 is an oxidation impurity formed by peroxide stress. Impurity 3 is chemically represented as (2-Deoxy-ribufuranosyl-3-guanylurea) or deformyl impurity and represented by following structure\nd) NFDU impurity is a transition impurity and increases on oxidation by peroxide stress chemically represented as N-(formylamidino) N′-β-D-2′-deoxyribofuranosylurea and structurally represented as […]"}, "[2]": {"conditions": "reconstituted and diluted Dacogen solution; cited from earlier work"}},
  "data": [
    {"smiles": "Nc1ncn([C@H]2C[C@H](O)[C@@H](CO)O2)c(=O)n1", "note": "[decitabine, 4-amino-1-(2-deoxy-β-D-erythro-pentofuranosyl)-1,3,5-triazin-2(1H)-one]", "values": [
      {"measurement": "Impurities obtained on forced degradation", "setting": "[1]", "result": "four known impurities namely Impurity-1, Impurity-2, Impurity-3 and NFDU are obtained"},
      {"measurement": "Stability in aqueous media", "setting": "[2]", "result": "highly unstable"}
    ]}
  ]
}
